Measured values taken from patent US8741940B2, “Microbicidal composition” (Rohm and Haas Company, priority 2005, dated 2014).
Where two headings read alike, the source gives them in different places.

Experiments:
Assay type in all cases: cell-based
[1] = system: Aspergillus niger (A. niger—ATCC 16404); test: Synergy test, microtiter plate high resolution MIC assay, mold in PDB medium; set-up: key to SI (synergy index): SI = Qa/QA + Qb/QB; >1 antagonism, lower SI = greater synergy; Qb (Second Component B) / Qa (First Component A): unit: ppm; conditions: for MIC: Aspergillus niger
Description: (§1) When the sum of Qa/QA and Qb/QB is greater than one, antagonism is indicated. […] The lower the SI, the greater the synergy shown by that particular mixture. The minimum inhibitory concentration (MIC) of a microbicide is the lowest concentration tested under a specific set of conditions that prevents the growth of added microorganisms.
(§2) Synergy tests were conducted using standard microtiter plate assays with media designed for optimal growth of the test microorganism. Minimal salt medium supplemented with 0.2% glucose and 0.1% yeast extract (M9GY medium) was used for testing bacteria; Potato Dextrose Broth (PDB medium) was used for testing yeast and mold. In this method, a wide range of combinations of microbicides and other personal care raw materials was tested by conducting high resolution MIC assays in the presence of various concentrations of BBIT or MBIT. High resolution MICs were determined by adding varying amounts of microbicide to one column of a microtitre plate and doing subsequent […] dilutions using an automated liquid handling system to obtain a series of endpoints ranging from 2 ppm to 10,000 ppm active ingredient.
(§3) The bacteria were used at a concentration of about 5 ×10^6 bacteria per mL and the yeast and mold at 5×10^5 fungi per mL. These microorganisms are representative of natural contaminants in many consumer and industrial applications. […] (yeast and mold) or 30° C. (bacteria).
(§4) In each test, First Component (A) was BBIT and the Second Component (B) was the other commercial microbicide.
(§5) In each test, First Component (A) was MBIT and the Second Component (B) was the other commercial microbicide.

[2] = system: Escherichia coli (E. coli—ATCC #8739); test: Synergy test, microtiter plate high resolution MIC assay, bacterium in M9GY medium; set-up: key to SI (synergy index): SI = Qa/QA + Qb/QB; >1 antagonism, lower SI = greater synergy; Qa (First Component A) / Qb (Second Component B): unit: ppm; conditions: for MIC: Escherichia coli
Description: as §1, §2, §3, §4, §5

[3] = system: Candida albicans (C. albicans—ATCC 10231); test: Synergy test, microtiter plate high resolution MIC assay, yeast in PDB medium; set-up: key to SI (synergy index): SI = Qa/QA + Qb/QB; >1 antagonism, lower SI = greater synergy; Qb (Second Component B) / Qa (First Component A): unit: ppm; conditions: for MIC: Candida albicans
Description: as §1, §2, §3, §4, §5

[4] = A=MBIT, B=dithio-2,2′-bis(N-methylbenzamide) (DTBMA), A. niger 16404 - PDB, 3 days
[5] = A=MBIT, B=dithio-2,2′-bis(N-methylbenzamide) (DTBMA), E. coli 8739 - M9GY, 24 hours
[6] = A=MBIT, B=dithio-2,2′-bis(N-methylbenzamide) (DTBMA), C. albicans 10231 - PDB, 24 hours
[7] = A. niger 16404, PDB, 3 days, alone where Qa = 0, otherwise in the mixture
[8] = C. albicans 10231, PDB, 24 hours
[9] = C. albicans 10231, PDB, 24 hours, alone where Qa = 0, otherwise in the mixture
[10] = A=MBIT, B=2-bromo-2-nitro-propane-1,3-diol (BNPD), A. niger 16404 - PDB, 4 days
[11] = ATCC16404, 168 h, A. niger 16404, PDB, 7 days, 25° C., read-out: MIC of the component acting alone (QA / QB)
[12] = A=MBIT, B=2-bromo-2-nitro-propane-1,3-diol (BNPD), E. coli 8739 - M9GY, 24 hours
[13] = A=MBIT, B=2-bromo-2-nitro-propane-1,3-diol (BNPD), C. albicans 10231 - PDB, 24 hours
[14] = ATCC16404, 168 h, A. niger 16404, PDB, 7 days, alone where Qa = 0, otherwise in the mixture, read-out: Qb (concentration of second component producing the end point, MIC)
[15] = ATCC10231, C. albicans 10231, PDB, 24 hours, alone where Qa = 0, otherwise in the mixture, read-out: Qb (concentration of second component producing the end point, MIC)

CCCCC(CC)CN1CN(CC(CC)CCCC)CC(C)(N)C1 (stereo not drawn) [Hexetidine]
SI (synergy index) ([1]; A. niger 16404, PDB, 3 days): 1.00
SI ([1]; A. niger 16404 - PDB, 4 days, BBIT + hexetidine): 1.00
Qb (Second Component B = Hexetidine) ([1]; A. niger 16404 - PDB, 4 days, hexetidine alone (Qa 0) or in mixture with BBIT): 100
MIC ([1]; ATCC16404, 72 h, A. niger 16404, PDB, 3 days, alone where Qa = 0, otherwise in the mixture, read-out: Qb (concentration of second component producing the end point, MIC)): 200 µg/mL
SI (synergy index) ([2]; E. coli 8739, M9GY, 72 hours): 1.00
SI ([2]; E. coli 8739 - M9GY, 72 hours, BBIT + hexetidine): 1.00
Qb (Second Component B = Hexetidine) ([2]; E. coli 8739 - M9GY, 72 hours, hexetidine alone (Qa 0) or in mixture with BBIT): 200
MIC ([2]; ATCC8739, E. coli 8739, M9GY, 72 hours, alone where Qa = 0, otherwise in the mixture, read-out: Qb (concentration of second component producing the end point, MIC)): 80 µg/mL
SI (synergy index) ([3]; C. albicans 10231, PDB, 72 hours): 1.00
SI ([3]; C. albicans 10231 - PDB, 72 hours, BBIT + hexetidine): 1.00
Qb (Second Component B = Hexetidine) ([3]; C. albicans 10231 - PDB, 72 hours, hexetidine alone (Qa 0) or in mixture with BBIT): 100
MIC ([3]; ATCC10231, C. albicans 10231, PDB, 72 hours, alone where Qa = 0, otherwise in the mixture, read-out: Qb (concentration of second component producing the end point, MIC)): 80 µg/mL

CNC(=O)c1ccccc1SSc1ccccc1C(=O)NC [DTBMA, dithio-2,2′-bis(N-methylbenzamide)]
SI ([1]; A. niger 16404 - PDB, 7 days, BBIT + DTBMA): 1.00
Qb (Second Component B = DTBMA) ([1]; A. niger 16404 - PDB, 7 days, DTBMA alone (Qa 0) or in mixture with BBIT): 1000
Qb (Second Component B) [1, 4]: 800
SI (synergy index) [1, 4]: 1.00
Qb (Second Component B) [2, 5]: 80
SI (synergy index) [2, 5]: 1.00
SI ([2]; E. coli 8739 - M9GY, 48 hours, BBIT + DTBMA): 1.00
Qb (Second Component B = DTBMA) ([2]; E. coli 8739 - M9GY, 48 hours, DTBMA alone (Qa 0) or in mixture with BBIT): 60
Qb (Second Component B) [3, 6]: 2000
SI (synergy index) [3, 6]: 1.00
SI ([3]; C. albicans 10231 - PDB, 24 hours, BBIT + DTBMA): 1.00
Qb (Second Component B = DTBMA) ([3]; C. albicans 10231 - PDB, 24 hours, DTBMA alone (Qa 0) or in mixture with BBIT): 2000

Hexylene glycol
SI (synergy index) ([1]; A. niger 16404, PDB, 3 days): 1.00
Qb (concentration of second component producing the end point, MIC) [1, 7]: 20000 ppm
SI ([1]; A. niger 16404 - PDB, 3 days, BBIT + hexylene glycol): 1.00
Qb (Second Component B = Hexylene glycol) ([1]; A. niger 16404 - PDB, 3 days, hexylene glycol alone (Qa 0) or in mixture with BBIT): 20000
SI (synergy index) ([2]; E. coli 8739, M9GY, 24 hours): 1.00
Qb (concentration of second component producing the end point, MIC) ([2]; E. coli 8739, M9GY, 24 hours, alone where Qa = 0, otherwise in the mixture): 20000 ppm
SI ([2]; E. coli 8739 - M9GY, 24 hours, BBIT + hexylene glycol): 1.00
Qb (Second Component B = Hexylene glycol) ([2]; E. coli 8739 - M9GY, 24 hours, hexylene glycol alone (Qa 0) or in mixture with BBIT): 20000
SI (synergy index) [3, 8]: 1.00
Qb (concentration of second component producing the end point, MIC) [3, 9]: 20000 ppm
SI ([3]; C. albicans 10231 - PDB, 24 hours, BBIT + hexylene glycol): 1.00
Qb (Second Component B = Hexylene glycol) ([3]; C. albicans 10231 - PDB, 24 hours, hexylene glycol alone (Qa 0) or in mixture with BBIT): 20000

Zinc pyrithione
Qb (concentration of Second Component B = Zinc pyrithione at the end point) [1]: 20
SI (synergy index) [1]: 1.00
Qb (concentration of Second Component B = Zinc pyrithione at the end point) [2]: 2
SI (synergy index) [2]: 1.00
Qb (concentration of Second Component B = Zinc pyrithione at the end point) [3]: 30
SI (synergy index) [3]: 1.00

O=C(O)CN(CCN(CC(=O)O)CC(=O)O)CC(=O)O [EDTA, Ethylenediamine tetraacetic acid]
Qb (Second Component B = EDTA) [1]: 1600
SI ([1]; A. niger 16404 - PDB, 7 days, BBIT + EDTA): 1.00
Qb (Second Component B = EDTA) [2]: 40000
SI ([2]; E. coli 8739 - M9GY, 72 hours, BBIT + EDTA): 1.00
Qb (Second Component B = EDTA) [3]: 600
SI ([3]; C. albicans 10231 - PDB, 24 hours, BBIT + EDTA): 1.00

O=[N+]([O-])C(Br)(CO)CO [BNPD, 2-bromo-2-nitro-propane-1,3-diol]
Qb (Second Component B) [1, 10]: 2000
SI (synergy index) [1, 10]: 1.00
MIC [1, 11]: 2000 µg/mL
Qb (Second Component B) [2, 12]: 8
SI (synergy index) [2, 12]: 1.00
MIC ([2]; ATCC8739, E. coli 8739, M9GY, 48 hours, 30° C., read-out: MIC of the component acting alone (QA / QB)): 10 µg/mL
Qb (Second Component B) [3, 13]: 1000
SI (synergy index) [3, 13]: 1.00
MIC ([3]; ATCC10231, C. albicans 10231, PDB, 48 hours, 25° C., read-out: MIC of the component acting alone (QA / QB)): 2000 µg/mL

O=C(O)CN(CCN(CC(=O)O)CC(=O)O)CC(=O)O [Ethylenediamine tetraacetic acid]
SI (synergy index) [1]: 1.00
MIC ([1]; ATCC16404, 72 h, read-out: Qb (concentration of second component producing the end point, MIC)): 1600 µg/mL
SI (synergy index) [2]: 1.00
MIC ([2]; ATCC8739, 24 h, read-out: Qb (concentration of second component producing the end point, MIC)): 40000 µg/mL
SI (synergy index) [3]: 1.00
MIC ([3]; ATCC10231, 48 h, read-out: Qb (concentration of second component producing the end point, MIC)): 1000 µg/mL

CCCOC(=O)c1ccc(O)cc1 [Propylparaben]
SI (synergy index) ([1]; A. niger 16404, PDB, 7 days): 1.00
SI ([1]; A. niger 16404 - PDB, 7 days, BBIT with Propylparaben): 1.00
MIC [1, 14]: 2000 µg/mL
SI (synergy index) ([2]; E. coli 8739, M9GY, 48 hours): 1.00
SI ([2]; E. coli 8739 - M9GY, 24 hours, BBIT with Propylparaben): 1.00
MIC ([2]; ATCC8739, E. coli 8739, M9GY, 48 hours, alone where Qa = 0, otherwise in the mixture, read-out: Qb (concentration of second component producing the end point, MIC)): 4000 µg/mL
SI (synergy index) [3, 8]: 1.00
SI ([3]; C. albicans 10231 - PDB, 24 hours, BBIT with Propylparaben): 1.00
MIC [3, 15]: 2000 µg/mL

linoleamidopropyl PG-dimonium chloride phosphate
SI (synergy index) ([1]; A. niger 16404, PDB, 3 days): 1.00
Qb (concentration of second component producing the end point, MIC) [1, 7]: 2000 ppm
SI ([1]; A. niger 16404 - PDB, 4 days, BBIT with Phospholipid EFA): 1.00
SI (synergy index) ([2]; E. coli 8739, M9GY, 48 hours): 1.00
Qb (concentration of second component producing the end point, MIC) ([2]; E. coli 8739, M9GY, 48 hours, alone where Qa = 0, otherwise in the mixture): 500 ppm
SI ([2]; E. coli 8739 - M9GY, 48 hours, BBIT with Phospholipid EFA): 1.00
SI (synergy index) [3, 8]: 1.00
Qb (concentration of second component producing the end point, MIC) [3, 9]: 1000 ppm
SI ([3]; C. albicans 10231 - PDB, 24 hours, BBIT with Phospholipid EFA): 1.00

C/C=C/C=C/C(=O)[O-].[K+] [Potassium sorbate]
SI [1]: 1.00
SI (synergy index) [1]: 1.00
MIC ([1]; ATCC16404, 96 h, read-out: Qb (concentration of second component producing the end point, MIC)): 10000 µg/mL
SI [2]: 1.00
SI (synergy index) [2]: 1.00
MIC ([2]; ATCC8739, 48 h, read-out: Qb (concentration of second component producing the end point, MIC)): 20000 µg/mL
SI [3]: 1.00
SI (synergy index) [3]: 1.00
MIC ([3]; ATCC10231, 24 h, read-out: Qb (concentration of second component producing the end point, MIC)): 400 µg/mL

CCOC(=O)c1ccc(O)cc1 [Ethylparaben]
SI (synergy index) ([1]; A. niger 16404, PDB, 7 days): 1.00
MIC [1, 11]: 800 µg/mL
MIC [1, 14]: 800 µg/mL
SI (synergy index) ([2]; E. coli 8739, M9GY, 24 hours): 1.00
MIC ([2]; ATCC8739, E. coli 8739, M9GY, 24 hours, 30° C., read-out: MIC of the component acting alone (QA / QB)): 2000 µg/mL
MIC ([2]; ATCC8739, E. coli 8739, M9GY, 24 hours, alone where Qa = 0, otherwise in the mixture, read-out: Qb (concentration of second component producing the end point, MIC)): 2000 µg/mL
SI (synergy index) [3, 8]: 1.00
MIC ([3]; ATCC10231, C. albicans 10231, PDB, 24 hours, 25° C., read-out: MIC of the component acting alone (QA / QB)): 800 µg/mL
MIC [3, 15]: 2000 µg/mL
